Test results from patent publication US11845959B2, “Identification of factor that promotes human HSC self-renewal” (THE REGENTS OF THE UNIVERSITY OF CALIFORNIA, priority 2016, dated 2023).

Tested on: human HSPC
Assay: Flavopiridol treatment of human HSPC, HSPC expansion in culture (FACS, total HSPC expansion over time)
Format: cell-based
Conditions: 100 nM, similarly to MLLT3 overexpression
From the text: We investigated whether an effect on transcription elongation by a different factor might change the effect. We determined that Treatment of human HSPC with Flavopiridol, a regulator of transcription elongation machinery, expands HSPC in culture.

`CN1CC[C@H](c2c(O)cc(O)c3c(=O)cc(-c4ccccc4Cl)oc23)[C@H](O)C1` [Flavopiridol] was tested, and the “HSPC expansion in culture” value was “sustained HSPC expansion in culture”.
